# Experimental data published in US20050250801A1, “Method of treating cancer with azaspirane compositions” (priority 2003, published 2005).
# Key:
# CaCo-2 cells = assay: Inhibition of proliferation of CaCo-2 cells (WST-1, Example 8); format: cell-based; details: Homo sapiens, 12 hours; for inhibition at 5 µM: read-out: % Inhibition of Proliferation at 5 μM Compound
# Protocol: The effect of N,N,-diethyl-8,8-dipropyl-2-azaspiro[4,5]decane-2-propanamine dimaleate (Compound 1) and other analogs (structures shown in Table 7) on proliferation of CaCo-2, a human colon carcinoma cell line, were evaluated in the following manner. Cell proliferation was measured by WST-1 dye conversion to Formazan assay using a proliferation kit from BioVision, CA. The procedure used was essentially the same as described in the manufacture's instructions. Briefly, cells were grown for 7 days until they formed semi-confluent monolayers. On day 7, cells were trypsinized and re-suspended in 96-well plates at a concentration of approximately 50,000 cells/well. […] A solution of 10 μl of WST-1 dye per well was added and plates were read after 4 hours at 440 and 600 nm using an ELISA plate reader. The absorbance at 440-600 nm is directly proportion to the number of proliferating cells. All samples were measured in duplicate and results were expressed as an average of two determinations.
# [1] = tested on: chorioallantoic membrane (CAM); assay: Anti-angiogenesis CAM assay; format: in vivo, White Leghorn eggs; details: Dose per egg 100 μg; 48 hour exposure; ten eggs
# Protocol: The dosing was effected by pipetting 40 μl of the indicated solution onto a 13 mm round Thermanox® coverslip and allowing it to air dry. After the material appeared dry, the coverslip was placed onto the chorioallantoic membrane (CAM) of each egg insuring contact of the dried test article with the CAM. After dosing, the eggs were returned to the incubator for approximately 48 hours. Following the 48 hour exposure period, the eggs were removed from the incubator, observed for viability, and the exposed area under the coverslip was examined for loss of vasculature.
SMILES,IC50 (CaCo-2 cells) [µM],inhibition at 5 µM (CaCo-2 cells) [%],Dead Eggs [1]
CCCCCC1(CCCCC)CCC2(CCN(CCCN(C)C)CC2)CC1 [G],~2.5,86,–
CN(C)CCCN1CCC2(CCC(C(C)(C)C)CC2)C1 (stereo not shown) [Compound C],> 20,15,–
CCC1(CC)CCC2(CCN(CCCN(C)C)C2)CC1 [F],> 20,35,–
CCCCC1(CC)CCC2(CCN(CCCN(C)C)C2)CC1 (stereo not shown) [K],~2.5,81,–
CN(C)CCCN1CCC2(CCC(C(C)(C)C)CC2)CC1 [A],~20,45,–
CN(C)CCCN1CCC2(CCC(C)(C)CC2)C1 [E],> 20,0,–
"O=C1CCC(N2C(=O)c3ccccc3C2=O)C(=O)N1 (stereo not shown) [Thalidomide, reference compound]",–,–,0
CN(C)CCCN1CCC2(CCCCC2)CC1 [D],> 20,0,–
CN(C)CCCN1CCC2(CCOCC2)C1 [B],> 20,0,–

# More lines, in order of falling IC50 (CaCo-2 cells), values ahead:
IC50 (CaCo-2 cells) [µM],SMILES,inhibition at 5 µM (CaCo-2 cells) [%],Dead Eggs [1]
~4,CCCC1(CCC)CCC2(CCN(CCCN3CCCCC3)C2)CC1 [M],67,–
~3.5,CCCCCCCCCCC1CCC2(CC1)CCN(CCCN(C)C)C2 (stereo not shown) [H],73,–
~3.5,CCCC1(CCC)CCC2(CCN(CCCCCCN(C)C)C2)CC1 [L],76,–
~2.5,CCCCC1(CCCC)CCC2(CCN(CCCN(C)C)C2)CC1 [J],84,–
